# Laboratory results as given in PubChem BioAssay AID2060890 (Molecular Pharmacology Branch, DTP, NCI, 2025).
# Test system: LG0703-F948-PDC complex spheroid viability
# Assay: Anticancer human tumor LG0703-F948-PDC patient-derived lung adenocarcinoma cell line growth inhibition [RAS]
# Settings: for IC50: curve of first compound; for viability, T/C: stronger effect = lower value
# From the text: RAS pathway inhibitors in Combinations in Complex Spheroids
# A high-throughput screen of multi-cell type tumor spheroids was designed to identify active combinations of RAS pathway inhibitors and targeted small molecules. Complex spheroids include a stromal component modeled by human endothelial cells (HUVEC) and fibroblasts modeled by human mesenchymal stem cells (MSCs). The concentration ranges selected for each drug and investigational agent were based upon clinically achievable concentrations if the clinical Cmax of the agent was known.
# Compounds. The drugs and investigational agents: abemaciclib (NSC768073), cobimetinib (NSC768068), divarasib (GDC6063, NSC841802), docetaxel (NSC628503), GDC-1971 (RLY-1971, NSC841576), gemcitabine (NSC613327), inavolisib (NSC800729), ipatasertib (NSC767898), KB-0742 (NSC834161), MRTX-1133 (NSC836407), osimertinib (NSC779217), RMC-4630 (NSC839698), RMC-6236 (NSC851965), RMC-6291 (NSC852671), Ro-3306 (NSC812927), sapanisertib (NSC764658), SN-38 (NSC673596), staurosporine (NSC755774), SY5609 (NSC837396), and tovorafenib (DAY101, NSC766906), were obtained from the National Cancer Institute (NCI) Developmental Therapeutics Program Chemical Repository. The FDA-approved anticancer drug set is available from the NCI Developmental Therapeutics Program. […] The stock solutions were prepared in dimethyl sulfoxide (DMSO, Sigma-Aldrich, St. Louis, MO, cat. D2650) at 800-fold the tested concentration and stored at -70 degrees C prior to their use. All drugs and investigational agents were tested over a range starting from a high concentration at or near the clinical Cmax and decreasing in half-log increments. If the clinical Cmax for an agent had not been determined, the highest concentration tested was 10 microM.
# Cell Culture. All cells were maintained in an incubator at 37 degrees C and 5% CO2 with 95% humidity. The PDC lines were cultured according to standard operating procedures established by the NCI PDMR. All PDCs were thawed and cultured in Matrigel-coated flasks prepared with a working solution of 1X Ham's F-12 nutrient mix, without supplementation (Invitrogen, Waltham, MA, cat. 11765054), 100 U/mL penicillin-streptomycin (Invitrogen, cat. 15140122), and 2.5% Matrigel (Corning Inc., Corning, NY, cat. 354248) for the first three passages. The 362531-283-R-J2-PDC and 782815-120-R-J1-PDC lines were cultured in 6C/Colon 1B media, which includes advanced DMEM/F-12 (Thermo Fisher Scientific, cat. 12634028), 10 mM HEPES (Thermo Fisher Scientific, cat. 15630080), 1X GlutaMAX supplement (Thermo Fisher Scientific, cat. 35050061), 0.1 mg/mL primocin (InvivoGen, San Diego, CA, cat. ant-pm-2), 10% defined fetal bovine serum, heat inactivated (HyClone Laboratories Inc., Logan, UT, cat. SH30070.03HI), 50% L-WRN conditioned media (ATCC, cat. CRL-3276), 1.25 mM N-Acetyl-L-cysteine (Sigma-Aldrich, cat. A9165), 10 mM nicotinamide (Sigma-Aldrich, cat. N0636), 1X B-27 supplement (Thermo Fisher Scientific, cat. 17504044), 1X N-2 supplement (Thermo Fisher Scientific, cat. 17502048), 50 ng/mL human EGF (Thermo Fisher Scientific, cat. PHG0311), and 10 microM Y-27632 dihydrochloride (Tocris Bioscience, cat. 1254). The K12877-001-R-J1-PDC line was cultured in 6I media, which includes all 6C/Colon 1B media plus 10 ng/mL human FGF-10 (PeproTech, cat. 100-26), 1 ng/mL human FGF-2 (PeproTech, cat. 100-18B), 1 µM prostaglandin E2 (Tocris Bioscience, cat. 2296), […] hydrocortisone (Sigma-Aldrich, cat. H4001), and […] bovine insulin (Sigma-Aldrich, cat. I6634). The K86415-001-R-J1-PDC line was cultured in 6D media, which includes all 6C/Colon 1B media components minus the L-WRN conditioned media. The 485176-168-R4-J1-PDC was cultured in PANC media, which includes all 6C/Colon 1B media plus 100 ng/mL human FGF-10 (PeproTech, cat. 100-26), 500 nM SB-431542 (Selleckchem, cat. S1067), and 10 nM gastrin (Tocris Bioscience, cat. 3006). […]
# 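Note: spheroids exposed to agents for 7 days.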
# 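Throughout, for viability, T/C: 100% = DMSO vehicle wells.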
smiles,measurement,setting,value
C=CC(=O)N1CCN(c2nc(OCC3CCCN3C)nc3c(F)c(-c4nc(N)cc(C)c4C(F)(F)F)c(Cl)cc23)C(C)C1 (configuration not stated) + C#Cc1c(F)ccc2cc(O)cc(-c3ncc4c(N5CC6CCC(C5)N6)nc(OCC56CCCN5CC(F)C6)nc4c3F)c12,IC50,second compound 0.0316 µM,> 1000 nM
same,IC50,second compound 0.1 µM,> 1000 nM
same,IC50,second compound 0.316 µM,> 1000 nM
same,IC50,second compound 1 µM,> 1000 nM
same,IC50,second compound 3.16 µM,> 1000 nM
same,IC50,second compound 10 µM,197 nM
same,"viability, T/C","second compound 0.0316 µM, first compound 0.00316 µM",127%
same,"viability, T/C","second compound 0.0316 µM, first compound 0.01 µM",87.8%
same,"viability, T/C","second compound 0.0316 µM, first compound 0.0316 µM",111%
same,"viability, T/C","second compound 0.0316 µM, first compound 0.1 µM",120%
same,"viability, T/C","second compound 0.0316 µM, first compound 0.316 µM",109%
same,"viability, T/C","second compound 0.0316 µM, first compound 1 µM",85.2%
same,"viability, T/C","second compound 0.1 µM, first compound 0.00316 µM",98.7%
same,"viability, T/C","second compound 0.1 µM, first compound 0.01 µM",110%
same,"viability, T/C","second compound 0.1 µM, first compound 0.0316 µM",94.9%
same,"viability, T/C","second compound 0.1 µM, first compound 0.1 µM",104%
same,"viability, T/C","second compound 0.1 µM, first compound 0.316 µM",109%
same,"viability, T/C","second compound 0.1 µM, first compound 1 µM",97.8%
same,"viability, T/C","second compound 0.316 µM, first compound 0.00316 µM",89.5%
same,"viability, T/C","second compound 0.316 µM, first compound 0.01 µM",82.2%
same,"viability, T/C","second compound 0.316 µM, first compound 0.0316 µM",86.1%
same,"viability, T/C","second compound 0.316 µM, first compound 0.1 µM",72.6%
same,"viability, T/C","second compound 0.316 µM, first compound 0.316 µM",82%
same,"viability, T/C","second compound 0.316 µM, first compound 1 µM",84.6%
same,"viability, T/C","second compound 1 µM, first compound 0.00316 µM",63.7%
same,"viability, T/C","second compound 1 µM, first compound 0.01 µM",76.6%
same,"viability, T/C","second compound 1 µM, first compound 0.0316 µM",79.3%
same,"viability, T/C","second compound 1 µM, first compound 0.1 µM",66.2%
same,"viability, T/C","second compound 1 µM, first compound 0.316 µM",73.9%
same,"viability, T/C","second compound 1 µM, first compound 1 µM",75%
same,"viability, T/C","second compound 3.16 µM, first compound 0.00316 µM",61.8%
same,"viability, T/C","second compound 3.16 µM, first compound 0.01 µM",57.8%
same,"viability, T/C","second compound 3.16 µM, first compound 0.0316 µM",75.3%
same,"viability, T/C","second compound 3.16 µM, first compound 0.1 µM",63.6%
same,"viability, T/C","second compound 3.16 µM, first compound 0.316 µM",59.3%
same,"viability, T/C","second compound 3.16 µM, first compound 1 µM",62.9%
same,"viability, T/C","second compound 10 µM, first compound 0.00316 µM",51.9%
same,"viability, T/C","second compound 10 µM, first compound 0.01 µM",54.2%
same,"viability, T/C","second compound 10 µM, first compound 0.0316 µM",54.1%
same,"viability, T/C","second compound 10 µM, first compound 0.1 µM",47.5%
same,"viability, T/C","second compound 10 µM, first compound 0.316 µM",50.7%
same,"viability, T/C","second compound 10 µM, first compound 1 µM",47%
